Measurements: ChEMBL document CHEMBL1128318, “Synthesis of novel 2,4-diaminopyrrolo-[2,3-d]pyrimidines with antioxidant, neuroprotective, and antiasthma activity” (J Med Chem, 1995)

Key:
[1] = The compound was tested for steady state volume of distribution pharmacokinetic parameter in the male Sprague-Dawley rat.; type: ADME, organism-based; conditions: in vivo
[2] = The compound was tested for Cmax value pharmacokinetic parameter in the male Sprague-Dawley rat.; type: ADME, organism-based; conditions: in vivo
[3] = The compound was tested for cytoprotective effect against the human astroglial cells.; type: functional, cell-based
[4] = species on record: Mus musculus; test: The compound was tested for spinal neuroprotection in mouse.; type: functional, organism-based
[5] = test system: Rattus norvegicus; test: The compound was tested for inhibition of lung eosinophilia in rat at 3 mg/kg/day, po; type: functional
[6] = species on record: Mus musculus; test: The compound was evaluated for increase in neurological status at 1 hr post head injury using a simple grip test in mouse.; type: functional
[7] = Oral bioavailability in rat (Sprague-Dawley) (male); type: ADME, organism-based; conditions: in vivo
[8] = test system: Rattus norvegicus; test: The compound was tested for inhibition of lung eosinophilia in rat at 30mg/kg/day, po; type: functional
[9] = test system: Mus musculus; test: The compound was tested for inhibition of lung eosinophilia in mouse at 30 mg/kg/day, po; type: functional
[10] = test system: Mus musculus; test: The compound was tested for inhibition of lung eosinophilia in mouse at 10 mg/kg/day, po; type: functional
[11] = The compound was tested for tmax value pharmacokinetic parameter in the male Sprague-Dawley rat.; type: ADME, organism-based; conditions: in vivo
[12] = The compound was tested for systemic clearance pharmacokinetic parameter in the male Sprague-Dawley rat.; type: ADME, organism-based; conditions: in vivo
[13] = test system: Mus musculus; test: The compound was tested for inhibition of lung eosinophilia in mouse at 3 mg/kg/day, po; type: functional
[14] = The compound was tested for terminal half-life pharmacokinetic parameter in the male Sprague-Dawley rat.; type: ADME, organism-based; conditions: in vivo
[15] = species on record: Rattus norvegicus; test: The compound was tested for inhibition of [Fe2+]-induced MDA formation in rat brain homogenate.; type: functional
[16] = test system: Rattus norvegicus; test: The compound was tested for inhibition of lung eosinophilia in rat at 30 mg/kg/day, po; type: functional
[17] = test system: Rattus norvegicus; test: The compound was tested for inhibition of lung eosinophilia in rat at 3mg/kg/day, po; type: functional
[18] = test system: Rattus norvegicus; test: The compound was tested for inhibition of lung eosinophilia in rat at 10 mg/kg/day, po; type: functional

Cn1c2c(c3c(N4CCCC4)nc(N4CCCC4)nc31)CCCC2
Vd [1]: 1.09 L/kg | Cmax [2]: 40300 ng/mL | EC50 [3]: 0.2 µM | IC50 [4]: 0.34 µM | inhibition in vivo at 3 mg/kg/day [5]: 72% | Score [6]: 276% | bioavailability [7]: 70.2% | inhibition in vivo at 30 mg/kg/day [8]: 47% | inhibition in vivo at 30 mg/kg/day [9]: 41% | inhibition in vivo at 10 mg/kg/day [10]: 31% | Tmax [11]: 2 h | clearance [12]: 1.67 mL/min/kg | inhibition in vivo at 3 mg/kg/day [13]: 0% | half-life [14]: 8.9 h | IC50 [15]: 2 µM

Cn1c(-c2ccc(O)cc2)cc2c(N3CCCC3)nc(N3CCCC3)nc21
Vd [1]: 66.2 L/kg | Cmax [2]: 720 ng/mL | EC50 [3]: 0.2 µM | IC50 [4]: 0.13 µM | Score [6]: 138% | bioavailability [7]: 31.4% | Tmax [11]: 8 h | clearance [12]: 38.8 mL/min/kg | half-life [14]: 6.1 h | IC50 [15]: 1 µM

Cc1cc2c(N3CCCC3)nc(N3CCCC3)nc2n1C
Vd [1]: 39.7 L/kg | inhibition in vivo at 30 mg/kg/day [16]: 28% | Cmax [2]: 5710 ng/mL | EC50 [3]: 0.2 µM | IC50 [4]: 7 µM | Score [6]: 100% | bioavailability [7]: 84.6% | inhibition in vivo at 3 mg/kg/day [17]: 0% | inhibition in vivo at 30 mg/kg/day [9]: 0% | inhibition in vivo at 10 mg/kg/day [10]: 0% | Tmax [11]: 4 h | inhibition in vivo at 10 mg/kg/day [18]: 27% | clearance [12]: 8.83 mL/min/kg | inhibition in vivo at 3 mg/kg/day [13]: 0% | half-life [14]: 10.9 h | IC50 [15]: 1 µM

COc1ccc(-c2cc3c(N4CCCC4)nc(N4CCCC4)nc3n2C)cc1
Vd [1]: 42.8 L/kg | Cmax [2]: 600 ng/mL | EC50 [3]: 0.4 µM | IC50 [4]: 3.4 µM | Score [6]: 73% | bioavailability [7]: 59.8% | Tmax [11]: 4 h | clearance [12]: 20.7 mL/min/kg | half-life [14]: 24.3 h | IC50 [15]: 1 µM

C1CCc2c(c3c(N4CCCC4)nc(N4CCCC4)nc3n2CCN2CCOCC2)C1
Vd [1]: 0.94 L/kg | Cmax [2]: 19400 ng/mL | EC50 [3]: 0.3 µM | IC50 [4]: 1.1 µM | inhibition in vivo at 3 mg/kg/day [5]: 13% | Score [6]: 163% | bioavailability [7]: 78.3% | inhibition in vivo at 30 mg/kg/day [8]: 62% | inhibition in vivo at 30 mg/kg/day [9]: 72% | inhibition in vivo at 10 mg/kg/day [10]: 56% | Tmax [11]: 2 h | inhibition in vivo at 10 mg/kg/day [18]: 30% | clearance [12]: 0.967 mL/min/kg | inhibition in vivo at 3 mg/kg/day [13]: 37% | half-life [14]: 11.2 h

Cn1c(-c2ccccc2)cc2c(N3CCCC3)nc(N3CCCC3)nc21
Vd [1]: 44 L/kg | Cmax [2]: 1420 ng/mL | EC50 [3]: 0.9 µM | IC50 [4]: 1.3 µM | Score [6]: 104% | bioavailability [7]: 55.9% | Tmax [11]: 4 h | clearance [12]: 23.7 mL/min/kg | half-life [14]: 22.1 h | IC50 [15]: 5 µM

c1ccc2c(c1)c1c(N3CCCC3)nc(N3CCCC3)nc1n2CCN1CCOCC1
Vd [1]: 1.92 L/kg | Cmax [2]: 14700 ng/mL | EC50 [3]: 3 µM | IC50 [4]: 10.6 µM | bioavailability [7]: 69.9% | inhibition in vivo at 30 mg/kg/day [8]: 85% | inhibition in vivo at 30 mg/kg/day [9]: 71% | inhibition in vivo at 10 mg/kg/day [10]: 62% | Tmax [11]: 2 h | inhibition in vivo at 10 mg/kg/day [18]: 87% | clearance [12]: 2 mL/min/kg | inhibition in vivo at 3 mg/kg/day [13]: 53% | half-life [14]: 15.7 h
